Here are results for 2 substances from patent publication US8318490B2, “Prelamin A pre peptide as a universal stem cell differentiation signal” (The Regents of the University of Colorado, a Body Corporate, priority 2006, dated 2012).

One experiment relates to C2C12 myoblasts. Nature of the experiment: Prelamin A pre peptide treatment of mitotically dividing C2C12 myoblasts, microscopy/immunostaining. Type of experiment: cell-based, mouse. As for the experimental part:
(§1) Cells and transfections. C2C12 and H9C2 cells were cultured in Growth Media (GM) defined as DMEM containing 10% (vol/vol) fetal bovine serum supplemented with Lglutamine, HEPES, non-essential amino acids and antibiotics. Effectene (Qiagen) was used to transfect plasmid DNA into cells following the manufacturer's instructions. Nondifferentiating transfected cells were allowed to continue growing for an additional 24 h before being processed for microscopy, or until confluent for protein isolation.
Peptide synthesis. The farnesylated and carboxymethylated prelamin A C-terminal peptide N-LLGNSSPRTQSPQNC-C (SEQ ID NO:2) was generated by FMOC solid phase peptide synthesis, and farnesylated and carboxymethylated (Biosynthesis). The peptide was analyzed on a C4 column and by laser desorption mass spectrometry. The lyophilized peptide was resuspended in DMSO.
(§2) Microscopy. Cells were fixed in cold 70% methanol/30% acetone solution for 10 min. Immunostaining was performed with anti-human lamin A/C (Novocastra), anti-prelamin A (Santa Cruz), or anti-desmin (Sigma) primary antibodies followed by the appropriate fluorescently labeled secondary antibody and mounting in anti-fade media containing DAPI (Vector Laboratories). Images were captured on an Olympus IX81 inverted microscope with Olympus objectives (U PLAN APO 10× oil N.A. 0.40, UAPO 40× oil N.A. 1.35, TIRFM PLAN APO 60× oil N.A. 1.45 WD 0.15 mm) and a Hamamatsu ORCA IIER monochromatic CCD camera and Intelligent Imaging Slidebook software. Images were also acquired on an Olympus IX70 Infinity inverted microscope with Olympus objectives (100× U PLAN APO, N.A. 1.35, W.D. 0.1 mm, oil; 20× U PLAN Fluorite, N.A. 0.5) with a Photometrics Quantix cooled CCD camera using Deltavision software. Signal strengths for the individual channels were adjusted using Adobe Photoshop strictly for improving the overall signal to noise ratio.
The farnesylated and carboxymethylated prelamin A pre peptide was chemically synthesized, and mitotically dividing C2C12 myoblasts were treated with the peptide at 1, 10 and 25 μg/ml in complete growth media containing 10% FBS.

The subject of experiment [1] is H9c2 rat cardiac myoblasts. Kind of experiment: Prelamin A pre peptide treatment of H9c2 cardiac myoblasts, desmin immunostaining. Type of experiment: cell-based. As for the experimental part:
as §1, §2
These cells were previously considered to be of cardiac lineage in part because they express heart-specific L-type calcium channels after prolonged exposure to retinoic acid during serum starvation induced differentiation (24). However, differentiation of H9c2 cells in culture has previously led to fusion and multinucleate myotube formation more resembling skeletal myotubes than cardiac myocytes.
Higher order intra- and intercellular organization is clearly evident in visible striations in the desmin staining pattern. […]

For the next experiment, the system named is H9c2 cells. Nature of the experiment: Western blots of peptide-treated H9c2 cells. Type of experiment: cell-based, rat. The settings on record: Western blot. As for the experimental part: Western blots. Cells were lysed in cell buffer (1% Triton X-100, 20 mM Tris-Cl, 7.5, 10 mM NaCl, 5 mM MgC2) containing 46 μg/ml leupeptin, 10 μg/ml aprotinin, and 250 μg/ml AE-BSF for 10 min on ice. Total protein concentration was determined using BioRad Protein Assay reagent and equal amounts of total protein were loaded in each lane. Western blots were probed with anti-lamin A/C (Novocastra, Santa Cruz), antiprelamin A (Santa Cruz) and anti-myogenin (Santa Cruz) primary antibodies and HRP-conjugated secondary antibodies (Santa Cruz, Pierce). Secondary antibody detection was performed using Super signal HRP (Pierce).
Higher order intra- and intercellular organization is clearly evident in visible striations in the desmin staining pattern. […] As in serum starvation induced differentiation of H9c2 myoblasts (26), an increase in the myogenic transcription factor myogenin is seen upon peptide treatment (FIG. 5F).
(In general: Immunoblotting shows a protein as a band on a membrane.)

In experiment [2] the test system is neonatal rat cardiac myocytes (NRMCs). Nature of the experiment: Peptide treatment of neonatal rat cardiac myocytes (NRMCs). Type of experiment: cell-based. An excerpt: Consequently, the prelamin A pre peptide not only determines tissue organization amongst the same type of cells, but also intracellular organization between different cell and tissue types.
Experiment [3] relates to adult rabbit cardiac myocytes. Kind of experiment: Peptide treatment of adult rabbit cardiac myocytes. Type of experiment: cell-based. The settings on record: differentiated cells.
A further experiment relates to ES cells. Kind of experiment: Peptide treatment of embryonic stem cells, staining for tubulin, pre peptide, DAPI. Type of experiment: cell-based. Conditions: 1 μg/ml, 6 hours. An excerpt:
ES cells were contacted with the prelamin A pre peptide (courtesy of Dr. Chris Hogan, University of Colorado).
FIGS. 14A-14C show a 10× control. The ES cells have round distinct nuclei and are expressing tubulin. The prelamin A signal is primarily in extracellular aggregates, though nuclear staining can also be detected.

In another experiment the test system is Mouse neural stem cells. Kind of experiment: Peptide treatment of mouse neural stem cells, lamin A/C, tubulin, DAPI staining. Type of experiment: cell-based. Conditions: two days. As for the experimental part:
Mouse neural stem cells were treated with the prelamin A peptide for two days (FIGS. 18D-18F) and were then fixed, immunostained for lamin A/C expression (FIGS. 18A and 18D) and tubulin expression (FIGS. 18B and 18E), and stained for DNA with DAPI (FIGS. 18C and 18F). […] Tubulin expression in untreated cells is cytoplasmic and relatively diffuse, and tubulin is excluded from the cell nucleus. In peptide-treated cells a distinct filamentous tubulin staining pattern is seen initiating at the cell nucleus and extending into the cell body.

Experiment [4] deals with Mouse F9 embryonic carcinoma cells. Nature of the experiment: Peptide treatment of F9 embryonic carcinoma cells, lamin A/C, keratin 8, DAPI staining. The experiment is classed as cell-based. The settings on record: two days. As for the experimental part: Mouse F9 embryonic carcinoma cells were treated with the prelamin A peptide for two days (FIGS. 19D-19F) and then were fixed, immunostained for lamin A/C expression (FIGS. 19A and 19D) and keratin 8 expression (FIGS. 19B and 19E), and stained for DNA with DAPI (FIGS. 19C and 19F). Keratin 8 and lamin A/C co-localize in all cells. […] Both keratin 8 and lamin A/C display distinct perinuclear filamentous staining, with greater expression towards the center of cell colonies than the periphery, in untreated F9 cells. […] The treated cells display a DNA morphology consistent with expansion of DNA into […]. Furthermore, cells at the edges of the treated colonies display altered cell morphology and are extending away from the colony, and intercellular spacing in the treated cell colonies has clearly been expanded.

In the next experiment the test system is neuroblastoma. Nature of the experiment: Peptide application to neuroblastoma cells (data not shown). Type of experiment: cell-based.
The next experiment concerns fibroblasts. Kind of experiment: Peptide exposure of homogeneous fibroblast cultures. The experiment is classed as cell-based.
Another experiment relates to C2C12 cells. Nature of the experiment: Chicken prelamin A peptide treatment of proliferating C2C12 cells, desmin immunostaining. The experiment is classed as cell-based, mouse. Conditions: 40 ug/ml. How it is done:
The chicken homologue of the human prelamin A peptide (SEQ ID NO: 17) was chemically synthesized and farnesylated and carboxymethylated. The lyophilized peptide was dissolved at 10 mg/ml in 50% DMSO/50% water. Actively proliferating C2C12 cells were treated with the chicken prelamin A peptide at 40 ug/ml on plastic chamber slides in complete DMEM media containing 10% fetal bovine serum (FBS). After 20 hours the cells were fixed in methanol/acetone and then immunostained with a rabbit anti-desmin primary antibody and a Texas Red conjugated anti-rabbit secondary antibody. Cover slips were mounted with media containing DAPI.

The subject of a further experiment is NIH3T3-L1 preadipocytes. Nature of the experiment: Chicken prelamin A peptide treatment of preadipocytes, oil red O staining. Type of experiment: cell-based. Conditions: 72 hours. The source says:
Based on the change in morphology and the oil red 0 staining, the chicken peptide induces the differentiation of NIH3T3-L1 cells into adipocytes.

Ends that are not written are not given here.

Take “N-LLGNSSPRTQSPQNC-C (not fully specified (residue 15); also: farnesylated, carboxymethylated; listed as Homo sapiens) [prelamin A pre peptide, farnesylated and carboxymethylated prelamin A C-terminal peptide (human, 15 amino acids), made by FMOC solid phase peptide synthesis]”: the cell morphogenesis entry in the experiment with C2C12 myoblasts (1 μg/ml, six hours, complete growth media containing 10% FBS) is given as “cells have undergone morphogenesis into a bipolar configuration”. Further, the desmin localization result in the experiment on C2C12 myoblasts (1 μg/ml, six hours, growth media 10% FBS) was “desmin can be seen localizing to the interface with the nuclear lamina and forming a filamentous skeleton at the locations where cells interact”. Moreover, in the experiment with C2C12 myoblasts (6 hours after peptide exposure), the desmin expression result is “desmin expression is either upregulated or redistributed”; the “prelamin A matrix formation” value is “prelamin A forms intra- and intercellular matrices”. Also, in the experiment on C2C12 myoblasts (6 hours of peptide treatment), the cell fusion entry is “cell fusion can be seen”. Further, in the experiment on C2C12 myoblasts (72 hours, depending on cell density), the “cell fusion / tissue formation” value is recorded as “the cells have fused to form either sheets or myotubes”. Further, the “time to induction of differentiation after contact with the peptide” value with C2C12 myoblasts (absence of conventional differentiation factors or cell confluence) is given as “within minutes”. For the same substance, the “fusion of closely spaced myoblasts and cell death” value with C2C12 myoblasts (closely spaced myoblasts) is given as “induces fusion of closely spaced myoblasts into a syncicium which eventually results in cell death”. For the same substance, the “effect of higher peptide concentrations” value in the experiment with C2C12 myoblasts (higher concentrations of the peptide) was “cell fusion and myotube formations”. In addition, the “concentrations inducing myoblast differentiation” value with C2C12 myoblasts (in vitro) is “micromolar and even nanomolar concentrations”. The ECM excretion entry in the experiment with C2C12 myoblasts (low concentrations of the peptide) was “excrete ECM”. In the experiment with C2C12 myoblasts (peptide at 1, 10 and 25 μg/ml), the “effect on cell proliferation” value is recorded as “dose-dependant effect on cell proliferation” and the polarization of nuclei result is “induces the kidney-shaped polarization of nuclei”. Moreover, the “effect of lower peptide concentrations” value in the experiment on C2C12 myoblasts (topical exposure, lower peptide concentrations) is “differentiation and morphogenesis representing a number of different cell types, and to intercellular interactions and tissue formation”. Besides, the tissue formation result in [1] (after 48 hours) was “formed a tissue sheet of mono- and binucleated cells interconnected by an extensive ECM”. In addition, the “time to extracellular matrix formation” value in [1] (cardiac myoblasts contacted with peptide) is not above 5 min. In addition, in experiment [1] (within six hours, growth media containing 10% FBS), the extracellular matrix secretion entry is listed as “secrete an extensive desmin extracellular matrix (ECM)”. Also, in the experiment with H9c2 cells, the “lamin A/C expression” value is on record as “modest increases”, the myogenin expression result was “increase” and the “prelamin A expression” value was “modest increases”. In [2] (10 ug/ml, six hours), the cell fusion result was “a number of cells can be seen to have fused” and the cell morphology result is recorded as “show an elongated morphology”. Also, the morphogenesis and fusion entry in experiment [2] (25 ug/ml, 18 hours) was “more extensive myocytes morphogenesis and fusion is observed”. Also, in experiment [2] (72 hours of exposure), the fusion into myosheets entry is “fused into beating myosheets”. For the same substance, in experiment [2] (fibroblasts adjacent to NRMCs, tubulin and actin staining), the “effect on fibroblasts and interaction between cell types” value is “induces the differentiation of fibroblasts and fusion/cross-talk between different cell types”. In [3], the cytoskeletal effect result was “cytoskeletal rearrangements were induced and there was a dissolution of the actin cytoskeleton”. Besides, in the experiment with ES cells, the DNA morphology result was “changed drastically”, the “secretion of pre peptide” value is “extensive secretion of the pre peptide” and the tubulin expression result is “no longer any tubulin expression”. Also, in the experiment on Mouse neural stem cells, the cell appearance entry is “taken on the appearance of nerve cells, including glial cells”; the “cell morphology and tubulin expression” value was “induced changes in cell morphology and tubulin expression”; the cell proliferation result was “inhibited cell proliferation”. Besides, in experiment [4], the “cell and DNA morphology, intercellular organization, lamin A/C and keratin 8 expression” value is “induces changes in cell morphology, DNA morphology, intercellular organization, and lamin A/C and keratin 8 expression”; the cell proliferation entry is “severely inhibits cell proliferation”. Further, in the experiment with neuroblastoma, the “effect on neuroblastoma cells” value is “arrest and aggregation”. The “structural effect on fibroblasts” value in the experiment on fibroblasts is “underwent structural reorganization”.

For the substance “VLGGAGPRRQAPAPQGC (listed as Gallus gallus) [chicken prelamin A peptide, chicken homologue of the human prelamin A peptide, chemically synthesized]”, the cytoskeleton entry in the experiment with C2C12 cells (20 hours, desmin staining) is reported as “cytoskeleton formation”. Further, in the experiment on C2C12 cells (within 20 hours, DMEM 10% FBS), the cell cycle entry is reported as “induced cell cycle arrest”; the morphogenesis and fusion result is “myoblast morphogenesis and fusion”. For the same substance, in the experiment on NIH3T3-L1 preadipocytes, the differentiation result is “differentiated into adipocytes” and the “oil red O staining” value is listed as “stained positively with oil red 0”.
